# Experimental data taken from PMC11292843 (ACS Omega, 2024).
# Like-named read-outs stand apart in the source and are kept apart here.
# Experiments:
# hPTP1B1–400 [1] = biological target: T1, hPTP1B1–400 (Homo sapiens, UniProt P18031); assay: PTP1B inhibition assay (pNPP, spectrocolorimetric), long form; settings: for fold higher potency for hPTP1B1–400 over hPTP1B1–285: ratio of IC50 values, long vs short form
# T1 sequence (P18031 1-400): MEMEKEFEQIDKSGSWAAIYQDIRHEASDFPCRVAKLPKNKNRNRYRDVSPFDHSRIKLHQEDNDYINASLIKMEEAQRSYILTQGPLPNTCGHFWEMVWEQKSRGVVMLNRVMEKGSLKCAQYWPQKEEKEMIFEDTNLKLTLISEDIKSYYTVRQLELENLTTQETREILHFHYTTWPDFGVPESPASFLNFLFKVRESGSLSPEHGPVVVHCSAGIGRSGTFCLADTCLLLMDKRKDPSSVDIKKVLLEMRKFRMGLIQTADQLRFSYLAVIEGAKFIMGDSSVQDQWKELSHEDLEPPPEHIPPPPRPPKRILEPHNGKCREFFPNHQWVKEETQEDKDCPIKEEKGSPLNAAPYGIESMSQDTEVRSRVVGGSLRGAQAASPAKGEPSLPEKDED
# hTCPTP = biological target: T2, hTCPTP (Homo sapiens, UniProt P17706); assay: Selectivity assay against TCPTP; type: biochemical; settings: for IC50: concentrations tested 1 to 400 μM, read-out: TCPTP IC50 ± SD
# T2 construct: His tag (vector pET-28a(+)-TEV, with TEV site); made in house; host or cells: E. coli BL21 (DE3)
# T2 sequence (P17706 1-415): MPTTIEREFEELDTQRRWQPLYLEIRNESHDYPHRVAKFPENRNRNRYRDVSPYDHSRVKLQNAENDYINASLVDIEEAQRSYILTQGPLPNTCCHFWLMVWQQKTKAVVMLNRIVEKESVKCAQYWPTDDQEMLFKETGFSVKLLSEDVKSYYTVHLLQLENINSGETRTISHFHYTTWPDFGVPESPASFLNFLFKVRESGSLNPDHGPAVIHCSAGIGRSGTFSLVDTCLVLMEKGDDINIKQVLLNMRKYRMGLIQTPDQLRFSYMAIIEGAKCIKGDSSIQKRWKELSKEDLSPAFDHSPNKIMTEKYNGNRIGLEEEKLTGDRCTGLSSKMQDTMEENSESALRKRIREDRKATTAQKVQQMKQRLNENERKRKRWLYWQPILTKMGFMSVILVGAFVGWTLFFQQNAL
# Method: A spectrocolorimetric method previously described[3] was employed to test the inhibitory effect of the new compounds against PTP1B. […] Enzyme solutions containing pNPP and inhibitors were incubated at 37 °C for 15 min. […] The percentage of inhibition was plotted as a function of the inhibitor concentrations.
# Similarly to the IC50, the assays to determine the selectivity were carried out in the same experimental conditions using hPTP1B1–400 and hTCPTP.
# The expression vector pET-28a(+)-TEV was obtained from Invitrogen (Waltham, MA, USA). E. coli strain DH5α and BL21 (DE3) were purchased from Invitrogen (Waltham, MA, USA). The gene PTPN2 was subcloned into the expression vector pET-28a (+)-TEV, using the NDEI and BAMHI cloning sites. The construction pET-28A(+)-TEV–PTPN2 was transformed into E. coli strain BL21 (DE3). Transformed E. coli cells were grown in LB media containing kanamycin ([…]) at 37 °C for 6 h with continuous agitation (250 rpm). Once the cultures reached an A600 of 0.6 (about 6 h), protein expression was induced with 1 mM IPTG at 37 °C, 250 rpm for 8 h. After centrifuge (4500 rpm, 15 min, 4 °C), the grown and IPTG-induced cultures and bacterial pellet were resuspended in Tris buffer (pH 6.8) and lysed by sonication (10 cycles, intervals of 30 s) in an ice–water bath with an ultrasonic processor (Cole-Parmer, Vernon Hills, IL, USA). […] The column was equilibrated with three column volumes of 50 mM Tris, pH 6.8. His-tagged protein was eluted with Tris 50 mM and 300 mM imidazole with one column volume. […] Fractions containing hTCPTP were dialyzed in 50 mM Tris, pH 6.8. The purity of the protein was followed by SDS-polyacrylamide gel electrophoresis (SDS-PAGE) using a 12% resolving gel.
# PTP1B = settings: cited from earlier work
# hPTP1B1–285 = biological target: T3, hPTP1B1–285 (Homo sapiens, UniProt P18031); assay: PTP1B inhibition assay (pNPP, spectrocolorimetric), short form
# T3 sequence (P18031 1-285): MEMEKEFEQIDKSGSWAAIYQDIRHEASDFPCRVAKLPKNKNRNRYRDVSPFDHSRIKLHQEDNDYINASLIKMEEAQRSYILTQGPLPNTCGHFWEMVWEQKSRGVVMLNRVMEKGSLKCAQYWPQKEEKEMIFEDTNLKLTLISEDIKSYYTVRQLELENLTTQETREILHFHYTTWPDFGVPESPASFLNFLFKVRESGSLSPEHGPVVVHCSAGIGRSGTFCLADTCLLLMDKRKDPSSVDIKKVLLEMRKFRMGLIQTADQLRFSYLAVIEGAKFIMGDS
# hPTP1B1–400 [2] = biological target: T1, hPTP1B1–400; assay: Enzyme kinetics (Lineweaver–Burk, varying pNPP); settings: for inhibition mechanism: hPTP1B1–400, best fit of inhibition models; for Km / Vmax: hPTP1B1–400, pNPP 0.1–0.5 mM
# TCPTP = settings: cited from earlier work
# hPTP1B1–400 [3] = biological target: T1, hPTP1B1–400; parameters: containing purified hPTP1B 66 nM (hPTP1B1–285 and hPTP1B1–400) and pNPP 0.5 mM; made in house; method as in PMID 36997321; settings: cited from earlier work
# [4] = IC50 ± SD hPTP1B1–400, hPTP1B 66 nM, pNPP 0.5 mM, 37 °C, 15 min
# [5] = PTP1B IC50 ± SD, selectivity assay, hPTP1B1–400
SMILES,IC50 (hTCPTP),selectivity (PTP1B over TCPTP) (hTCPTP; hPTP1B1–400 vs hTCPTP),IC50 (hPTP1B1–285),Ki (hPTP1B1–400 [2]),inhibition mechanism (hPTP1B1–400 [2]),Km (hPTP1B1–400 [2]),Vmax (hPTP1B1–400 [2]),IC50 (hPTP1B1–400 [1]; [4]),IC50 (hPTP1B1–400 [1]; [5]),other results
"C[C@H](CCC(=O)O)[C@H]1CC[C@H]2[C@@H]3CC[C@@H]4C[C@H](O)CC[C@]4(C)[C@H]3CC[C@]12C [LA, lithocholic acid, reference compound]",> 400 µM,only inhibited PTP1B but not TCPTP and Yes,22.2 ± 0.9 µM,5.5 ± 1.1 µM,uncompetitive inhibitor,1200 ± 300 µM,1.7 ± 0.3 mM/min,–,–,IC50 (hPTP1B1–400 [1]): 14 ± 0.9 µM; fold higher potency for hPTP1B1–400 over hPTP1B1–285 (hPTP1B1–400 [1]): 1.5 fold; IC50 (PTP1B; read-out: IC50 (PTP1B)): 12.5 µM; fold selectivity for PTP1B over TCPTP (TCPTP): 2 fold
"Cc1ccc(C(=O)Nc2ccc(S(=O)(=O)O)c3cc(S(=O)(=O)O)cc(S(=O)(=O)O)c23)cc1NC(=O)c1cccc(NC(=O)Nc2cccc(C(=O)Nc3cc(C(=O)Nc4ccc(S(=O)(=O)O)c5cc(S(=O)(=O)O)cc(S(=O)(=O)O)c45)ccc3C)c2)c1 [SUR, suramin]",–,–,–,–,–,–,–,–,–,Km (hPTP1B1–400 [3]): 290 ± 20 µM; Vmax (hPTP1B1–400 [3]): 0.64 ± 0.02 mM/min; inhibition mechanism (hPTP1B1–400 [3]): competitive inhibition
"O=C(O)C(=O)Nc1sc2c(c1C(=O)O)CCNC2 [TCS401, reference compound]",6.7 ± 0.6 µM,–,12.4 ± 1 µM,–,–,–,–,8.1 ± 0.9 µM,8.15 ± 0.91 µM,Ki (PTP1B): 4.7 µM
CC(C)[C@@H](CC[C@@H](C)[C@H]1CC[C@H]2[C@@H]3[C@H](O)C[C@H]4C[C@@H](NCCCNCCCCNCCCN)CC[C@]4(C)[C@H]3CC[C@]12C)OS(=O)(=O)O [Trodusquemine],–,–,–,–,–,–,–,–,–,inhibition mechanism (PTP1B): […]; IC50 (PTP1B; read-out: IC50 against PTP1B): […]; IC50 (TCPTP; read-out: IC50 against TCPTP): 224 µM
"C[C@H]1[C@H](C)CC[C@]2(C(=O)O)CC[C@]3(C)C(=CC[C@@H]4[C@@]5(C)CC[C@H](O)C(C)(C)[C@@H]5CC[C@]43C)[C@H]12 [UA, ursolic acid]",> 400 µM,–,–,–,–,–,–,–,–,Vmax (hPTP1B1–400 [3]): 0.63 ± 0.08 mM/min; inhibition mechanism (hPTP1B1–400 [3]): mixed inhibition
"C[C@H](CCC(=O)O)C1CCC2C3CC[C@@H]4C[C@](O)(CNCc5ccc(C(F)(F)F)cc5)CC[C@]4(C)C3CC[C@@]21C.Cl (stereo partly drawn) [compound 6n, 1-((3S,5R,10S,13R)-17-((R)-4-carboxybutan-2-yl)-3-hydroxy-10,13-dimethylhexadecahydro-1H-cyclopenta[a]phenanthren-3-yl)-N-(4-(trifluoromethyl)benzyl)methanaminium Chloride]",> 400 µM,Yes,16.3 ± 0.9 µM,3.4 ± 0.3 µM,uncompetitive inhibition,520 ± 70 µM,0.73 ± 0.06 mM/min,5.3 ± 0.2 µM,5.3 ± 0.2 µM,fold more potent than LA (hPTP1B1–400 [1]; hPTP1B1–400 IC50 compared with LA): 3 fold; fold higher potency for hPTP1B1–400 over hPTP1B1–285 (hPTP1B1–400 [1]): ~3 fold; fold selectivity for PTP1B over TCPTP (hTCPTP; hPTP1B1–400 vs hTCPTP): around 75 fold
"C[C@H](CCC(=O)O)C1CCC2C3CC[C@@H]4C[C@](O)(CNCc5cc(C(F)(F)F)cc(C(F)(F)F)c5)CC[C@]4(C)C3CC[C@@]21C.Cl (stereo partly drawn) [compound 6o, N-(3,5-bis(trifluoromethyl)benzyl)-1-((3S,5R,10S,13R)-17-((R)-4-carboxybutan-2-yl)-3-hydroxy-10,13-dimethylhexadecahydro-1H-cyclopenta[a]phenanthren-3-yl)methanaminium Chloride]",> 400 µM,Yes,43 ± 1.3 µM,3.9 ± 0.7 µM,Uncompetitive,1900 ± 300 µM,2.7 ± 0.4 mM/min,11 ± 0.2 µM,11 ± 0.2 µM,–
